Test results published in patent US20230085307A1, “PYRIDAZINONE COMPOUND AND HERBICIDE” (NISSAN CHEMICAL CORPORATION, priority 2019, published 2023).

Assays:
windgrass [1] = assay: Test Example 5: herbicidal effect by foliage application, plastic box (Table 20, symbol L); type: in vivo, windgrass (Apera spica-venti); settings: foliage application
Outline: (§1)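 Foliar spray test: emulsion formulation diluted in water to a set application rate, sprayed onto 14-day-old plants raised in diluvial soil at 25° C to 30° C under glass. Both herbicidal effect and crop effect rated visually three weeks later.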

barnyard grass [2] = assay: Test Example 5: herbicidal effect by foliage application, plastic box (Table 20, symbol H); type: in vivo, barnyard grass (Echinochloa crus-galli); settings: foliage application
Outline: as §1

barnyard grass [3] = assay: Test Example 3: herbicidal effect by foliage application, Wagner pot (Table 18, symbol H); type: in vivo, barnyard grass (Echinochloa crus-galli); settings: amount of applied herbicide 320 g/ha
Outline: (§2)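 Plants were sown in alluvial soil held under 0.1–0.5 cm standing water and grown 14 days in a greenhouse at 25–30 °C. An emulsifiable formulation, water-diluted to the set dose, was then sprayed onto the foliage, and effects were scored three weeks later using previously defined criteria.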

green foxtail [4] = assay: Test Example 4: herbicidal effect by soil treatment (Table 19, symbol G); type: in vivo, green foxtail (Setaria viridis); settings: amount of applied herbicide 320 g/ha
Outline: (§3)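 Herbicidal effect was rated 3 weeks after treatment, using the scoring criteria of an earlier test. The compound, formulated as an emulsion and diluted in water to a set herbicide amount, had been sprayed uniformly on soil over freshly sown seeds. Growth took place in a greenhouse at 25° C. to 30° C.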

Chinese sprangletop = assay: Test Example 3: herbicidal effect by foliage application, Wagner pot (Table 18, symbol D); type: in vivo, chinese sprangletop (Leptochloa chinensis); settings: amount of applied herbicide 320 g/ha
Outline: as §2

redroot pigweed [5] = assay: Test Example 4: herbicidal effect by soil treatment (Table 19, symbol N); type: in vivo, redroot pigweed (Amaranthus retroflexus); settings: amount of applied herbicide 320 g/ha
Outline: as §3

oval-leafed pondweed = assay: Test Example 2: herbicidal activity, application during weed generation under submerged conditions (Table 17, symbol C); type: in vivo, oval-leafed pondweed (Monochoria vaginalis); settings: AAH 320 g/ha; application during weed generation, submerged conditions
Outline: (§4)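 Herbicide emulsion, diluted with water to the chosen amount, is applied onto 4 cm floodwater over alluvial soil where the weeds were co-sown and raised at 25–30° C. Application timing: 1–2 leaves. Assessment: three weeks afterwards.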

chickweed [6] = assay: Test Example 4: herbicidal effect by soil treatment (Table 19, symbol P); type: in vivo, common chickweed (Stellaria media); settings: amount of applied herbicide 320 g/ha
Outline: as §3

blackgrass [7] = assay: Test Example 4: herbicidal effect by soil treatment (Table 19, symbol J); type: in vivo, blackgrass (Alopecurus myosuroides); settings: amount of applied herbicide 320 g/ha
Outline: as §3

Japanese bulrush = assay: Test Example 2: herbicidal activity, application during weed generation under submerged conditions (Table 17, symbol B); type: in vivo, Japanese bulrush (Schoenoplectus juncoides); settings: AAH 320 g/ha; application during weed generation, submerged conditions
Outline: as §4

late watergrass = assay: Test Example 2: herbicidal activity, application during weed generation under submerged conditions (Table 17, symbol A); type: in vivo, late watergrass (Echinochloa oryzicola); settings: AAH 320 g/ha; application during weed generation, submerged conditions
Outline: as §4

lambsquarters [8] = assay: Test Example 5: herbicidal effect by foliage application, plastic box (Table 20, symbol O); type: in vivo, lambsquarters (Chenopodium album); settings: foliage application
Outline: as §1

windgrass [9] = assay: Test Example 4: herbicidal effect by soil treatment (Table 19, symbol L); type: in vivo, windgrass (Apera spica-venti); settings: amount of applied herbicide 320 g/ha
Outline: as §3

Italian ryegrass [10] = assay: Test Example 4: herbicidal effect by soil treatment (Table 19, symbol K); type: in vivo, Italian ryegrass (Lolium multiflorum); settings: amount of applied herbicide 320 g/ha
Outline: as §3

lambsquarters [11] = assay: Test Example 4: herbicidal effect by soil treatment (Table 19, symbol O); type: in vivo, lambsquarters (Chenopodium album); settings: amount of applied herbicide 320 g/ha
Outline: as §3

southern crabgrass [12] = assay: Test Example 4: herbicidal effect by soil treatment (Table 19, symbol F); type: in vivo, southern crabgrass (Digitaria ciliaris); settings: amount of applied herbicide 320 g/ha
Outline: as §3

Italian ryegrass [13] = assay: Test Example 5: herbicidal effect by foliage application, plastic box (Table 20, symbol K); type: in vivo, Italian ryegrass (Lolium multiflorum); settings: foliage application
Outline: as §1

velvetleaf [14] = assay: Test Example 5: herbicidal effect by foliage application, plastic box (Table 20, symbol M); type: in vivo, velvetleaf (Abutilon theophrasti); settings: foliage application
Outline: as §1

velvetleaf [15] = assay: Test Example 4: herbicidal effect by soil treatment (Table 19, symbol M); type: in vivo, velvetleaf (Abutilon theophrasti); settings: amount of applied herbicide 320 g/ha
Outline: as §3

rice flat sedge = assay: Test Example 3: herbicidal effect by foliage application, Wagner pot (Table 18, symbol E); type: in vivo, rice flat sedge (Cyperus iria); settings: amount of applied herbicide 320 g/ha
Outline: as §2

wild oat [16] = assay: Test Example 4: herbicidal effect by soil treatment (Table 19, symbol I); type: in vivo, wild oat (Avena fatua); settings: amount of applied herbicide 320 g/ha
Outline: as §3

redroot pigweed [17] = assay: Test Example 5: herbicidal effect by foliage application, plastic box (Table 20, symbol N); type: in vivo, redroot pigweed (Amaranthus retroflexus); settings: foliage application
Outline: as §1

persian speedwell [18] = assay: Test Example 4: herbicidal effect by soil treatment (Table 19, symbol R); type: in vivo, Persian speedwell (Veronica persica); settings: amount of applied herbicide 320 g/ha
Outline: as §3

barnyard grass [19] = assay: Test Example 4: herbicidal effect by soil treatment (Table 19, symbol H); type: in vivo, barnyard grass (Echinochloa crus-galli); settings: amount of applied herbicide 320 g/ha
Outline: as §3

blackgrass [20] = assay: Test Example 5: herbicidal effect by foliage application, plastic box (Table 20, symbol J); type: in vivo, blackgrass (Alopecurus myosuroides); settings: foliage application
Outline: as §1

green foxtail [21] = assay: Test Example 5: herbicidal effect by foliage application, plastic box (Table 20, symbol G); type: in vivo, green foxtail (Setaria viridis); settings: foliage application
Outline: as §1

wild oat [22] = assay: Test Example 5: herbicidal effect by foliage application, plastic box (Table 20, symbol I); type: in vivo, wild oat (Avena fatua); settings: foliage application
Outline: as §1

persian speedwell [23] = assay: Test Example 5: herbicidal effect by foliage application, plastic box (Table 20, symbol R); type: in vivo, Persian speedwell (Veronica persica); settings: foliage application
Outline: as §1

southern crabgrass [24] = assay: Test Example 5: herbicidal effect by foliage application, plastic box (Table 20, symbol F); type: in vivo, southern crabgrass (Digitaria ciliaris); settings: foliage application
Outline: as §1

chickweed [25] = assay: Test Example 5: herbicidal effect by foliage application, plastic box (Table 20, symbol P); type: in vivo, common chickweed (Stellaria media); settings: foliage application
Outline: as §1

[26] = AAH 320 g/ha, evaluated three weeks after application
[27] = 320 g/ha, three weeks after application

## CCOC(=O)OC(C)Oc1c(C)nn(C)c(=O)c1-c1c(-c2ccc(OC(F)F)cc2)sc2ccc(F)cc12 (stereo not drawn) [2-308]
Windgrass [1]; [26]
  L: windgrass, herbicidal effect (criteria 0-5): 0 (Herbicidal rate of 5% or less (almost no effect))
Barnyard grass [2]; [26]
  H: barnyard grass, herbicidal effect (criteria 0-5): 4 (Herbicidal rate of 70% or more and less than 90%)
Barnyard grass [3]
  herbicidal effect on H: barnyard grass: 5 (Herbicidal rate of 90% or more (almost completely withered))
Green foxtail [4]
  herbicidal effect on G: green foxtail: 0 (Herbicidal rate of 5% or less (almost no effect))
Chinese sprangletop
  herbicidal effect on D: Chinese sprangletop: 3 (Herbicidal rate of 40% or more and less than 70%)
Redroot pigweed [5]
  herbicidal effect on N: redroot pigweed: 0 (Herbicidal rate of 5% or less (almost no effect))
oval-leafed pondweed
  herbicidal effect rating, C: oval-leafed pondweed: 0 (Herbicidal rate of 5% or less (almost no effect))
Chickweed [6]
  herbicidal effect on P: chickweed: 0 (Herbicidal rate of 5% or less (almost no effect))
Blackgrass [7]
  herbicidal effect on J: blackgrass: 0 (Herbicidal rate of 5% or less (almost no effect))
Japanese bulrush
  herbicidal effect rating, B: Japanese bulrush: 0 (Herbicidal rate of 5% or less (almost no effect))
Late watergrass
  herbicidal effect rating, A: late watergrass: 3 (Herbicidal rate of 40% or more and less than 70%)
Lambsquarters [8]; [26]
  O: lambsquarters, herbicidal effect (criteria 0-5): 5 (Herbicidal rate of 90% or more (almost completely withered))
Windgrass [9]
  herbicidal effect on L: windgrass: 0 (Herbicidal rate of 5% or less (almost no effect))
Italian ryegrass [10]
  herbicidal effect on K: Italian ryegrass: 0 (Herbicidal rate of 5% or less (almost no effect))
Lambsquarters [11]
  herbicidal effect on O: lambsquarters: 0 (Herbicidal rate of 5% or less (almost no effect))
Southern crabgrass [12]
  herbicidal effect on F: southern crabgrass: 0 (Herbicidal rate of 5% or less (almost no effect))
Italian ryegrass [13]; [26]
  K: Italian ryegrass, herbicidal effect (criteria 0-5): 0 (Herbicidal rate of 5% or less (almost no effect))
Velvetleaf [14]; [26]
  M: velvetleaf, herbicidal effect (criteria 0-5): 5 (Herbicidal rate of 90% or more (almost completely withered))
Velvetleaf [15]
  herbicidal effect on M: velvetleaf: 0 (Herbicidal rate of 5% or less (almost no effect))
Rice flat sedge
  herbicidal effect on E: rice flat sedge: 4 (Herbicidal rate of 70% or more and less than 90%)
Wild oat [16]
  herbicidal effect on I: wild oat: 0 (Herbicidal rate of 5% or less (almost no effect))
Redroot pigweed [17]; [26]
  N: redroot pigweed, herbicidal effect (criteria 0-5): 4 (Herbicidal rate of 70% or more and less than 90%)
Persian speedwell [18]
  herbicidal effect on R: persian speedwell: 5 (Herbicidal rate of 90% or more (almost completely withered))
Barnyard grass [19]
  herbicidal effect on H: barnyard grass: 0 (Herbicidal rate of 5% or less (almost no effect))
Blackgrass [20]; [26]
  J: blackgrass, herbicidal effect (criteria 0-5): 0 (Herbicidal rate of 5% or less (almost no effect))
Green foxtail [21]; [26]
  G: green foxtail, herbicidal effect (criteria 0-5): 5 (Herbicidal rate of 90% or more (almost completely withered))
Wild oat [22]; [26]
  I: wild oat, herbicidal effect (criteria 0-5): 0 (Herbicidal rate of 5% or less (almost no effect))
Persian speedwell [23]; [26]
  R: persian speedwell, herbicidal effect (criteria 0-5): 5 (Herbicidal rate of 90% or more (almost completely withered))
Southern crabgrass [24]; [26]
  F: southern crabgrass, herbicidal effect (criteria 0-5): 1 (Herbicidal rate of 5% or more and less than 20%)
Chickweed [25]; [26]
  P: chickweed, herbicidal effect (criteria 0-5): 5 (Herbicidal rate of 90% or more (almost completely withered))

## CCc1nn(C)c(=O)c(-c2c(-c3ccc(F)cc3)sc3ccc(F)cc23)c1O [2-406]
Windgrass [1]; [27]
  L: windgrass, herbicidal effect grade: 4 (Herbicidal rate of 70% or more and less than 90%)
Barnyard grass [2]; [27]
  H: barnyard grass, herbicidal effect grade: 4 (Herbicidal rate of 70% or more and less than 90%)
Barnyard grass [3]
  herbicidal effect on H: barnyard grass: 4 (Herbicidal rate of 70% or more and less than 90%)
Green foxtail [4]
  herbicidal effect, G: green foxtail: 4 (Herbicidal rate of 70% or more and less than 90%)
Chinese sprangletop
  herbicidal effect on D: Chinese sprangletop: 4 (Herbicidal rate of 70% or more and less than 90%)
Redroot pigweed [5]
  herbicidal effect, N: redroot pigweed: 4 (Herbicidal rate of 70% or more and less than 90%)
oval-leafed pondweed
  herbicidal effect rating, C: oval-leafed pondweed: 0 (Herbicidal rate of 5% or less (almost no effect))
Chickweed [6]
  herbicidal effect, P: chickweed: 3 (Herbicidal rate of 40% or more and less than 70%)
Blackgrass [7]
  herbicidal effect, J: blackgrass: 0 (Herbicidal rate of 5% or less (almost no effect))
Japanese bulrush
  herbicidal effect rating, B: Japanese bulrush: 0 (Herbicidal rate of 5% or less (almost no effect))
Late watergrass
  herbicidal effect rating, A: late watergrass: 2 (Herbicidal rate of 20% or more and less than 40%)
Lambsquarters [8]; [27]
  O: lambsquarters, herbicidal effect grade: 4 (Herbicidal rate of 70% or more and less than 90%)
Windgrass [9]
  herbicidal effect, L: windgrass: 0 (Herbicidal rate of 5% or less (almost no effect))
Italian ryegrass [10]
  herbicidal effect, K: Italian ryegrass: 3 (Herbicidal rate of 40% or more and less than 70%)
Lambsquarters [11]
  herbicidal effect, O: lambsquarters: 3 (Herbicidal rate of 40% or more and less than 70%)
Southern crabgrass [12]
  herbicidal effect, F: southern crabgrass: 2 (Herbicidal rate of 20% or more and less than 40%)
Italian ryegrass [13]; [27]
  K: Italian ryegrass, herbicidal effect grade: 4 (Herbicidal rate of 70% or more and less than 90%)
Velvetleaf [14]; [27]
  M: velvetleaf, herbicidal effect grade: 5 (Herbicidal rate of 90% or more (almost completely withered))
Velvetleaf [15]
  herbicidal effect, M: velvetleaf: 3 (Herbicidal rate of 40% or more and less than 70%)
Rice flat sedge
  herbicidal effect on E: rice flat sedge: 5 (Herbicidal rate of 90% or more (almost completely withered))
Wild oat [16]
  herbicidal effect, I: wild oat: 0 (Herbicidal rate of 5% or less (almost no effect))
Redroot pigweed [17]; [27]
  N: redroot pigweed, herbicidal effect grade: 5 (Herbicidal rate of 90% or more (almost completely withered))
Persian speedwell [18]
  herbicidal effect, R: persian speedwell: 0 (Herbicidal rate of 5% or less (almost no effect))
Barnyard grass [19]
  herbicidal effect, H: barnyard grass: 4 (Herbicidal rate of 70% or more and less than 90%)
Blackgrass [20]; [27]
  J: blackgrass, herbicidal effect grade: 3 (Herbicidal rate of 40% or more and less than 70%)
Green foxtail [21]; [27]
  G: green foxtail, herbicidal effect grade: 5 (Herbicidal rate of 90% or more (almost completely withered))
Wild oat [22]; [27]
  I: wild oat, herbicidal effect grade: 0 (Herbicidal rate of 5% or less (almost no effect))
Persian speedwell [23]; [27]
  R: persian speedwell, herbicidal effect grade: 5 (Herbicidal rate of 90% or more (almost completely withered))
Southern crabgrass [24]; [27]
  F: southern crabgrass, herbicidal effect grade: 3 (Herbicidal rate of 40% or more and less than 70%)
Chickweed [25]; [27]
  P: chickweed, herbicidal effect grade: 5 (Herbicidal rate of 90% or more (almost completely withered))
